Earlier results in patent US20220313772A1, “Method of Treating a Child with Central Precocious Puberty using an Extended Release Composition” (Tolmar International Limited, priority 2019, published 2022).

Settings: in vivo

For `CCNC(=O)[C@@H]1CCCN1C(=O)[C@H](CCCNC(=N)N)NC(=O)[C@H](CC(C)C)NC(=O)[C@@H](CC(C)C)NC(=O)[C@H](Cc1ccc(O)cc1)NC(=O)[C@H](CO)NC(=O)[C@H](Cc1c[nH]c2ccccc12)NC(=O)[C@H](Cc1c[nH]cn1)NC(=O)[C@@H]1CCC(=O)N1` [Leuprolide acetate, leuprolide acetate], the “adverse effects at high dose” value is given as “no adverse effects differing from those observed with a 1 mg/day dose”.
